{
  "source": "paper PMC6332393",
  "about": "“A Fungal α-Galactosidase from Tricholoma matsutake with Broad Substrate Specificity and Good Hydrolytic Activity on Raffinose Family Oligosaccharides” (Molecules, 2015)",
  "key": {"α-galactosidase TMG [1]": {"test_system": "T1, α-galactosidase TMG", "T1 construct": "native, purified from fruiting bodies (Yunnan, China); monomer, 47 kDa by SDS-PAGE and gel filtration; inner peptides by LC-MS/MS GNVMVSLG, LLNMND, INVNDS; not cloned", "assay": "reducing sugar release ([…],5-dinitrosalicylic acid); Grafit fit", "format": "biochemical, Tricholoma matsutake", "conditions": "100 mM NaAc-HAc pH 4.6, 40 °C; 1-10 mM substrate; apparent Km; unit Mm [sic]"}, "α-galactosidase TMG [2]": {"test_system": "T1, α-galactosidase TMG", "assay": "p-nitrophenol release at […] nm; Grafit fit", "format": "biochemical, Tricholoma matsutake", "conditions": "pH 4.6, 50 °C (standard assay); 1-10 mM substrate; apparent Km; unit Mm [sic]"}},
  "data": [
    {"smiles": "OC[C@H]1O[C@H](OC[C@H]2O[C@H](O[C@]3(CO)O[C@H](CO)[C@@H](O)[C@@H]3O)[C@H](O)[C@@H](O)[C@@H]2O)[C@H](O)[C@@H](O)[C@H]1O", "note": "[raffinose]", "values": [
      {"measurement": "Km", "setting": "α-galactosidase TMG [1]", "value": 3.7, "unit": "mM"}
    ]},
    {"smiles": "OC[C@H]1O[C@H](OC[C@H]2O[C@H](OC[C@H]3O[C@H](O[C@]4(CO)O[C@H](CO)[C@@H](O)[C@@H]4O)[C@H](O)[C@@H](O)[C@@H]3O)[C@H](O)[C@@H](O)[C@H]2O)[C@H](O)[C@@H](O)[C@H]1O", "note": "[stachyose]", "values": [
      {"measurement": "Km", "setting": "α-galactosidase TMG [1]", "value": 3.5, "unit": "mM"}
    ]},
    {"smiles": "O=[N+]([O-])c1ccc(O[C@H]2O[C@H](CO)[C@H](O)[C@H](O)[C@H]2O)cc1", "note": "[pNPGal, 4-Nitrophenyl α-D-galactopyranoside]", "values": [
      {"measurement": "Km", "setting": "α-galactosidase TMG [2]", "value": 0.99, "unit": "mM"}
    ]}
  ]
}
